# Measured values: patent US20080287469A1, “Phosphoinositide 3-Kinase Inhibitors for Inhibiting Leukocyte Accumulation” (priority 2005, published 2008)
# How the values were obtained:
# E-selectin = assay: Flow cytometric analysis of E-selectin expression on TNFα-stimulated HUVECs; details: TNFα 4 hr; IC87114 2 to 50 μM, LY294002 10 μM, Bay 11-7082 10 μM
# [1] = system: TNFα-stimulated HUVEC monolayers; assay: Laminar flow assay: neutrophil capture by TNFα-stimulated HUVEC monolayers; format: cell-based, human; details: wall shear rate 200 s^−1; IC87114 2 μM, LY294002 10 μM, Bay 11-7082 10 μM, CL3 50 μg/ml
# Protocol: Peripheral blood neutrophils were isolated from healthy volunteers and infused over the endothelial cell monolayer that was incorporated into a parallel plate flow chamber (GlycoTech) for 5 min at a shear rate of 200 s^−1. (Puri et al., Blood, 103:3448-3456 (2004)) Approval was obtained from the Washington University institutional review board for these studies. Informed consent was provided according to the Declaration of Helsinki. Neutrophil-endothelial cell interactions were recorded and analyzed as previously described. (Puri et al., Blood, 103:3448-3456 (2004)) For E-selectin blockade, HUVECs were incubated with mAb CL3 (50 μg/ml, 15 min) prior to adhesion assays.
# p110δ [2] = target: T1, p110δ (Mus musculus, UniProt O35904); assay: Immunoprecipitation and PI3K activity assay: p110δ from spleen extracts of WT mice; format: biochemical; details: 10 μM; vs vehicle control
# T1 construct: this enzyme isolated from spleen extracts of WT animals; from tissue; host or cells: mouse spleen
# Protocol: Spleens from WT mice were pulverized in liquid nitrogen cooled mortar and solubilized in PI3-kinase lysis buffer (50 mM Tris-HCl (pH 7.4), 1% Triton X-100, 150 mM NaCl, 1 mM EDTA and a cocktail of inhibitors to serine and cysteine proteases (Complete™, Mini, Roch Applied Science, IN). HUVEC lysates were prepared as described. (Puri et al., Blood, 103:3448-3456 (2004)) Lysates were precleared with protein A-Sepharose and aliquots of the supernatants were incubated with antibodies specific for p110δ and p110γ, or control antibody for 1 hour at 4° C., followed by addition of protein A-Sepharose for 2 hours at 4° C. Precipitates were washed once with lysis buffer, twice with 0.1 M Tris-HCl, pH 7.4; 5 mM LiCl; and 0.1 mM sodium orthovanadate and once with PI 3-kinase buffer containing 20 mM Hepes, pH 7.4, 10 μM ATP, 5 mM MgCl2, plus 50 μg/ml horse IgG (Pierce, Rockford, Ill.). Lipid kinase activity was determined as previously described. (Sadhu et al., J. Immunol., 170:2647-2654 (2003)) The radioactive product PIP3 was captured onto a 96-well polyvinylidene difluoride filter plate (Millipore, Billerica, Mass.) and the bound radioactivity was quantitated with Microbeta Liquid Scintillation Counter (PerkinElmer Life Sciences, Boston, Mass.).
# [3] = system: neutrophils on inflamed venular endothelium (E-selectin-dependent adhesion); assay: Intravital microscopy of TNFα-stimulated cremaster muscle venules, P-selectin−/− mice; format: in vivo; details: oral, one hour prior to TNFα-stimulation, vs vehicle
# Protocol: The surgical preparation of animals for all in vivo studies was performed using standard techniques. (Puri et al., Blood, 103:3448-3456 (2004)) An inflammatory response in the cremaster muscle (CM) venules of mice was induced by an intrascrotal injection of recombinant murine TNFα (20 ng/mouse). The tissue was surgically exposed 3 h post-cytokine stimulation and viewed on an intravital microscope (IV-500; Mikron instruments). GFP-expressing cells were visualized in the microcirculation through X^60 water immersion objective (Zeiss) using an intensified camera (VE1000SIT; Dage mti) and epifluorescence illumination. Rolling fraction was defined as the percentage of cells that interact with a given region of venule as compared to the total number of cells that enter that vessel (interacting and non-interacting) during the same time period. Venular shear rates were determined from optical Doppler velocimeter measurements of centerline erythrocyte velocity. Video images were recorded using a Hi8 VCR (Sony) and analysis of performed using a PC-based image analysis system.
# Although P-selectin expressed on endothelium predominates in the initial capture of circulating neutrophils in acute tissue injury, it is E-selectin that accounts for the phenotypically slow rolling movements of these cells in microvessels of TNFα-stimulated CM. […]
# p110δ [4] = target: p110δ (Homo sapiens, UniProt O00329); details: cited from earlier work
# [5] = Plasma concentration of the compound after oral administration; format: in vivo, mice; details: 4 h post-oral administration; P-selectin−/− mice
# Protocol: Animals received a single oral dose of either a compound in accordance with the invention (25 mg/kg for mice and 20 or 40 mg/kg for rats) or vehicle (PEG-400). Blood samples were subsequently drawn at indicated time points and plasma concentration of the compound determined after liquid-liquid extraction by LC/MS. The lower quantification limit was 50 ng/ml. Plasma samples from control animals (vehicle alone) were used as the blank control.
# Chain of p110δ (Homo sapiens, UniProt O00329) (O00329 whole entry, species assumed): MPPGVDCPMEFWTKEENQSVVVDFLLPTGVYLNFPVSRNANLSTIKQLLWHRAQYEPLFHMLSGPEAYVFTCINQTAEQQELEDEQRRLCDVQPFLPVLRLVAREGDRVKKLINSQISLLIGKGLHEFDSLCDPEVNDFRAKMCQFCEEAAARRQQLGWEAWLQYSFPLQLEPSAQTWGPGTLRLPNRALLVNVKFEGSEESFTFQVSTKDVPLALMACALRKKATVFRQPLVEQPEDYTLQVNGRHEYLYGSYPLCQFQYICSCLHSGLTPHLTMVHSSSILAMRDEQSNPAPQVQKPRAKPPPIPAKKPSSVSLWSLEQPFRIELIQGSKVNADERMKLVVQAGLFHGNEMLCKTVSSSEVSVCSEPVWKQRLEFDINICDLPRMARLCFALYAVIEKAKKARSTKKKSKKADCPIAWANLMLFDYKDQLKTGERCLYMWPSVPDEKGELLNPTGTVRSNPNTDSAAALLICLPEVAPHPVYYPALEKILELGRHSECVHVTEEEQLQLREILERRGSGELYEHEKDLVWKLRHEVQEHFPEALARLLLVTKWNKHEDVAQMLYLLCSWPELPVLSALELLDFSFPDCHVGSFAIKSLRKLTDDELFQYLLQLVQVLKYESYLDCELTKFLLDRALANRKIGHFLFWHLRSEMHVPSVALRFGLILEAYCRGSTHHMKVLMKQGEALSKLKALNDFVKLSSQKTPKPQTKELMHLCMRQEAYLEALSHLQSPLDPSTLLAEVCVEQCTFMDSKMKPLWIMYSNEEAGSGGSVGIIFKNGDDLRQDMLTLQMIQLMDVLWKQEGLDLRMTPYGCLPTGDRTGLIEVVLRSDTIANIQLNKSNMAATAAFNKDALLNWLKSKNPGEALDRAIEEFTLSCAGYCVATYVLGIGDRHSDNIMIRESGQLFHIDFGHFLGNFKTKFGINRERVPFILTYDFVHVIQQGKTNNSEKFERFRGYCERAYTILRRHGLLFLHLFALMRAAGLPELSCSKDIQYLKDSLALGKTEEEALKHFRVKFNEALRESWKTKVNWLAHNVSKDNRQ
# Chain of p110δ (Homo sapiens, UniProt O00329) (P27986 whole entry partner, species assumed): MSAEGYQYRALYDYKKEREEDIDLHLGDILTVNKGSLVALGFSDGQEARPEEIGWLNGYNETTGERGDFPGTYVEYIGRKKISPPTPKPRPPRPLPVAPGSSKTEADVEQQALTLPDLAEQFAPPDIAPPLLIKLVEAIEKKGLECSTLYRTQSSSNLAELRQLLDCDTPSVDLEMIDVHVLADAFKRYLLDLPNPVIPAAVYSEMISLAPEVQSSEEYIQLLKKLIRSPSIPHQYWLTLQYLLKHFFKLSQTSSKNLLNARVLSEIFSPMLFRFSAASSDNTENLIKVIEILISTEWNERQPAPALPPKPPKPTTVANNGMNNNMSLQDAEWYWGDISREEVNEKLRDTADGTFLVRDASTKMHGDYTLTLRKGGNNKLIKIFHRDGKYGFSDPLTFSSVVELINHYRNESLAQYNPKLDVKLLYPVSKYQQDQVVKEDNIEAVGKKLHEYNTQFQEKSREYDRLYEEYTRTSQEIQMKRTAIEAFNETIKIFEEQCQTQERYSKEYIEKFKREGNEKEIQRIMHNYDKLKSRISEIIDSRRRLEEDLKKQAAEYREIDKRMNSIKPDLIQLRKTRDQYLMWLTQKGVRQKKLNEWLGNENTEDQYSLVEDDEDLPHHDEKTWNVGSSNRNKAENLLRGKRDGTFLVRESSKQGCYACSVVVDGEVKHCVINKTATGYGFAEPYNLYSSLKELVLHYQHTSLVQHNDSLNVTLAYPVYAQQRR
# T1 sequence (O35904 whole entry): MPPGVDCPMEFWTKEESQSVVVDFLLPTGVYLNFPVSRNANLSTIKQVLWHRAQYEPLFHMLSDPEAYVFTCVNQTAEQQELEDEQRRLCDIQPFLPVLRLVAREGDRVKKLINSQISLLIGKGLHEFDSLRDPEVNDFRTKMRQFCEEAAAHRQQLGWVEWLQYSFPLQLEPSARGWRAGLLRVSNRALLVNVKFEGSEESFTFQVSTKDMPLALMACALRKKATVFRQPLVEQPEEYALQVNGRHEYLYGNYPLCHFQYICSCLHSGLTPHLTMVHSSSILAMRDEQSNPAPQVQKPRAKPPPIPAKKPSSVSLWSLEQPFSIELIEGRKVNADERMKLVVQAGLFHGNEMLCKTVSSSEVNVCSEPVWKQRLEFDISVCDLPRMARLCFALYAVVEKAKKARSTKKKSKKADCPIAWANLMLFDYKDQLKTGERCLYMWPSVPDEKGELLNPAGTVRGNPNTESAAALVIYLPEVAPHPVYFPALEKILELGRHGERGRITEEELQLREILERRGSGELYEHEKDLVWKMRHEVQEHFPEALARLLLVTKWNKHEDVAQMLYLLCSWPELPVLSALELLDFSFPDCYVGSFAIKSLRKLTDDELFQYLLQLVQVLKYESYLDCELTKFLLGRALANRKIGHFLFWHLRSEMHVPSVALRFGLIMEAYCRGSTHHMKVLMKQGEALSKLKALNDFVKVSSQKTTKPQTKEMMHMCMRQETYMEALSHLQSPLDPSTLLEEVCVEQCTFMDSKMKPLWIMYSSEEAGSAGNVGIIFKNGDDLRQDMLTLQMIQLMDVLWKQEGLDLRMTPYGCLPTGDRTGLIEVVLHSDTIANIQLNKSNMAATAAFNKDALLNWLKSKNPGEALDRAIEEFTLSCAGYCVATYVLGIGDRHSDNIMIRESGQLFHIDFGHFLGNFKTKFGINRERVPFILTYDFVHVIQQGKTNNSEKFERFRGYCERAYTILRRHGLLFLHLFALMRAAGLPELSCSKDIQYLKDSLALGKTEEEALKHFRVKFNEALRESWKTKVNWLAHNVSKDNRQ
# T1 sequence (P26450 whole entry partner): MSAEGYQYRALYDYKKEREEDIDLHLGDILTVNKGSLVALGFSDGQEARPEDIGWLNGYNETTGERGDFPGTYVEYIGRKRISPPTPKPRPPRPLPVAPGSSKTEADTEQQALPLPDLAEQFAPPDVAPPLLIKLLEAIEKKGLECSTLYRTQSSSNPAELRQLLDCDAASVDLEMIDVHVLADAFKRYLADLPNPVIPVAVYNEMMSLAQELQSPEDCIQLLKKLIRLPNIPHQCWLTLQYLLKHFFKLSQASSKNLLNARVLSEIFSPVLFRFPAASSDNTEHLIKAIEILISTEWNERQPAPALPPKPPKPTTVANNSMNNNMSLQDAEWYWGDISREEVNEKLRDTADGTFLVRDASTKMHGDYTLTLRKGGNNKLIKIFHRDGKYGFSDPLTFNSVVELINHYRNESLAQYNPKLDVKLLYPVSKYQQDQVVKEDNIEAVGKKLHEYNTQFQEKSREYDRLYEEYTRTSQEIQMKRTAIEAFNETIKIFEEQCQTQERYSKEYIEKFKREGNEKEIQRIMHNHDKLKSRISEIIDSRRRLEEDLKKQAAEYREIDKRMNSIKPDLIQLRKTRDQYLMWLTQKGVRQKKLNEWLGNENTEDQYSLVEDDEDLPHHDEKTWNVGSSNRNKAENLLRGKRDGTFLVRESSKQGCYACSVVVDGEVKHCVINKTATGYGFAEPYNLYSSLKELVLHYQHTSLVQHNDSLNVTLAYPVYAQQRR
Compound,TNFα-induced expression of E-selectin (E-selectin),reduction of capture/attachment of untreated neutrophils [1] [%],reduction of PIP3 production by immuno-precipitated p110δ (p110δ [2]) [%],reduction in neutrophil attachment to and rolling on inflamed venular endothelium [3] [%],inhibition of delta activity (p110δ [4]; 10 μM) [%],"inhibition of p110δ activity at the mean plasma level (p110δ [4]; 4.9±2.7 μM, Sadhu et al.) [%]",mean plasma level of the compound [5] [µM]
Cc1ccc(S(=O)(=O)/C=C/C#N)cc1 [Bay 11-7082],abrogated,100,,,,,
Cc1ccccc1-n1c(Cn2cnc3c(N)ncnc32)nc2cccc(C)c2c1=O [IC87114],,,> 90,> 88,> 95,> 85,4.9 ± 2.7
